Numbered stars: 1 amine (or outer) side, 2 acyl side, 3 side chain; on linkers, the order of the positions; unused ones are H or OH. Square brackets hold non-standard residues; d marks the D form. Side chains are listed from the residue outwards. Peptide text beside a SMILES is read from it. * marks the point of attachment. C20 diacid = O=C(O)CCCCCCCCCCCCCCCCCCC(=O)*; γGlu = O=C(O)[C@H](CCC(=O)[*:2])N[*:1]; AEEA = NCCOCCOCC(=O)O; Aib = CC(C)(N)C(=O)O

This note sets out measurements from patent publication US20260201008A1, “SECRETIN-DERIVED GLP1R SELECTIVE AGONISTS” (GUBRA A/S, priority 2023, published 2026).

Series [1] in a line: Turbidity of crude library peptides (absorbance at 600 nm). The class given is physicochemical. The conditions noted are these: Physical stability of peptides. In short, it runs like this:
(§1)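 Turbidity is the absorbance at 600 nm, taken before heating. Fibril signal is the mean ThT emission at 480 nm (450 nm excitation), read every 10 min over 72 h at 40° C with 700 rpm shaking between reads. Peptides at 267 μM, pH 4.0 acetate or pH 7.0 phosphate buffer (50 mM), 4 μM ThT final.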

In series [2] the target is GLP1R (Homo sapiens, UniProt P43220). Description: hGLP1R potency, cAMP accumulation in CHO-K1 cells stably overexpressing hGLP1R. It is filed as cell-based. More on the design: host or cells: CHO-K1. The conditions noted are these: for Selectivity: SCTR EC50/GLP1R EC50 ratio; for EC50: cAMP accumulation, CHO-K1 cells overexpressing hGLP1R, read-out: pEC50 hGLPR1 (converted). The procedure, abridged: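 EC50 derives from variable-slope nonlinear regression of cAMP HTRF signal, with purified peptides tested as 11 three-fold dilutions in duplicate. Assay: hGLP1R-overexpressing CHO-K1 cells, 0.5 mM IBMX, 0.05% casein in DPBS, 30 min room-temperature stimulation, GLP-1(7-36) as reference agonist.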
GLP1R, sequence (P43220 24-463): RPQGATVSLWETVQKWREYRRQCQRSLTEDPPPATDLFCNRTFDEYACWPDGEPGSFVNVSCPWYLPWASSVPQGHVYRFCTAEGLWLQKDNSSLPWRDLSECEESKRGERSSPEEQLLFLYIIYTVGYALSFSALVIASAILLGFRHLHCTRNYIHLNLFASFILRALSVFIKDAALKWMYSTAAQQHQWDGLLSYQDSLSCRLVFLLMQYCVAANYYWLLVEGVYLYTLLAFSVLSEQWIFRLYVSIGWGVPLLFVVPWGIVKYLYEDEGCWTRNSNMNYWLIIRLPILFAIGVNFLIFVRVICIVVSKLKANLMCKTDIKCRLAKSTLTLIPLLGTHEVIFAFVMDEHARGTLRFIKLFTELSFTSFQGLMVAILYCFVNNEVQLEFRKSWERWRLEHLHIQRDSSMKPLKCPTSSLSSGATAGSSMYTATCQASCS
For orientation: Cyclic AMP is a second messenger, typically raised through Gs and lowered through Gi signalling.

A short description of series [3]: Fibril formation of crude library peptides (Thioflavin T). The class given is physicochemical. More on the design: key: average ThT fluorescence emission at 480 nm (ex 450 nm), raw units. The conditions noted are these: Physical stability of peptides. In short, it runs like this: as §1
The target in series [4] is SCTR (Homo sapiens, UniProt P47872). Description: hSCTR potency, cAMP accumulation in CHO-K1 cells stably overexpressing hSCTR. More on the design: alternatively Euroscreen ES-712-AF; FAST-0161L; host or cells: CHO-K1. The class given is cell-based. The conditions noted are these: cAMP accumulation, CHO-K1 cells overexpressing hSCTR; read-out: pEC50 hSCTR (converted). The procedure, abridged:
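EC50 derived from variable-slope nonlinear regression on 11-point, 3-fold series run in duplicate (crude peptides: 5 points, 10-fold, n=1). Compound stimulation lasted 30 min at room temperature in casein/IBMX-containing DPBS (0.05%, 0.5 mM), 2000 cells/well; cAMP detected by time-resolved FRET after one hour.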

SCTR, sequence (P47872 23-440): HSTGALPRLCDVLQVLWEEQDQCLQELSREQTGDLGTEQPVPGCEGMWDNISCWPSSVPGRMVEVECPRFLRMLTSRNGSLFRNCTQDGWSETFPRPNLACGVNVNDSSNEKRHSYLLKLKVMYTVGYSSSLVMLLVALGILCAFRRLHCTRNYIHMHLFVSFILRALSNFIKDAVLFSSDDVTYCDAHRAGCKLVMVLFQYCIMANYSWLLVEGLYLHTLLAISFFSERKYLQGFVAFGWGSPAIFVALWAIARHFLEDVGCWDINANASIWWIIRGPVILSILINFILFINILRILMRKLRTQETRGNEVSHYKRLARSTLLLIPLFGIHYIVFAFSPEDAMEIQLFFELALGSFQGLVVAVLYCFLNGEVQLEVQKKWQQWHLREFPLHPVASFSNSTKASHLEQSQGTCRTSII

With `CC(C)C[C@H](NC(=O)[C@H](Cc1ccccc1)NC(=O)[C@H](CCCNC(=N)N)NC(=O)[C@H](CCC(N)=O)NC(=O)[C@@H](NC(=O)[C@H](C)NC(=O)[C@H](C)NC(=O)[C@@H](NC(=O)[C@H](CCC(=O)O)NC(=O)[C@H](CCCCNC(=O)COCCOCCNC(=O)COCCOCCNC(=O)CC[C@H](NC(=O)CCCCCCCCCCCCCCCCCCC(=O)O)C(=O)O)NC(=O)[C@H](CC(C)C)NC(=O)[C@H](CCCNC(=N)N)NC(=O)[C@H](CO)NC(=O)[C@@H](NC(=O)[C@H](CC(=O)O)NC(=O)[C@H](CO)NC(=O)[C@@H](NC(=O)[C@H](Cc1ccccc1)NC(=O)[C@@H](NC(=O)CNC(=O)[C@H](CCC(=O)O)NC(=O)C(C)(C)NC(=O)[C@@H](N)Cc1c[nH]cn1)[C@@H](C)O)[C@@H](C)O)C(C)C)[C@@H](C)O)[C@@H](C)O)C(=O)N[C@@H](CCC(=O)O)C(=O)N[C@@H](Cc1c[nH]cn1)C(=O)N[C@@H](CC(C)C)C(=O)N[C@H](C(N)=O)C(C)C` [compound 26] (H-H[Aib]EGTFTSDVSRLK([AEEA-AEEA-γGlu-C20 diacid])ETAATQRFLEHLV-NH2), in series [1], the “Turbidity (pH 7)” value is 0.08. Also, in series [2], the Selectivity stood at 4577 and the EC50 is 0.0126 nM. In series [3], this molecule showed a Fibril formation of 97558. For the same molecule, the EC50 in series [4] was 63.1 nM.

In the case of `CC(C)C[C@H](NC(=O)[C@H](Cc1ccccc1)NC(=O)[C@H](CCCNC(=N)N)NC(=O)[C@H](CCC(N)=O)NC(=O)C(C)(C)NC(=O)[C@H](C)NC(=O)[C@H](C)NC(=O)[C@H](Cc1ccccc1)NC(=O)[C@H](CCC(=O)O)NC(=O)[C@H](CCCCNC(=O)COCCOCCNC(=O)COCCOCCNC(=O)CC[C@H](NC(=O)CCCCCCCCCCCCCCCCCCC(=O)O)C(=O)O)NC(=O)[C@H](CC(C)C)NC(=O)[C@H](Cc1ccccc1)NC(=O)[C@H](CO)NC(=O)[C@@H](NC(=O)[C@H](CC(=O)O)NC(=O)[C@H](CO)NC(=O)[C@@H](NC(=O)[C@H](Cc1ccccc1)NC(=O)[C@@H](NC(=O)CNC(=O)[C@H](CCC(=O)O)NC(=O)C(C)(C)NC(=O)[C@@H](N)Cc1c[nH]cn1)[C@@H](C)O)[C@@H](C)O)C(C)C)C(=O)N[C@@H](CCC(=O)O)C(=O)N[C@@H](Cc1c[nH]cn1)C(=O)N[C@@H](CC(C)C)C(=O)N[C@H](C(N)=O)C(C)C` [compound 27] (H-H[Aib]EGTFTSDVSFLK([AEEA-AEEA-γGlu-C20 diacid])EFAA[Aib]QRFLEHLV-NH2), the “Turbidity (pH 7)” value in series [1] was determined as 0.09. In addition, the Selectivity in series [2] came to 33159. For the same molecule, the EC50 in series [2] is 0.1 nM; in series [4], 3160 nM. For the same molecule, in series [3], the Fibril formation came to 16757.

Take `CC(C)C[C@H](NC(=O)[C@H](Cc1ccccc1)NC(=O)[C@H](CCCNC(=N)N)NC(=O)[C@H](CCC(N)=O)NC(=O)[C@H](C)NC(=O)[C@H](C)NC(=O)[C@H](C)NC(=O)[C@H](CCC(=O)O)NC(=O)[C@H](CCC(=O)O)NC(=O)[C@H](CCCCNC(=O)COCCOCCNC(=O)COCCOCCNC(=O)CC[C@H](NC(=O)CCCCCCCCCCCCCCCCCCC(=O)O)C(=O)O)NC(=O)[C@H](CC(C)C)NC(=O)[C@@H](NC(=O)[C@H](CO)NC(=O)[C@@H](NC(=O)[C@H](CC(=O)O)NC(=O)[C@H](CO)NC(=O)[C@@H](NC(=O)[C@H](Cc1ccccc1)NC(=O)[C@@H](NC(=O)CNC(=O)[C@H](CCC(=O)O)NC(=O)C(C)(C)NC(=O)[C@@H](N)Cc1c[nH]cn1)[C@@H](C)O)[C@@H](C)O)C(C)C)C(C)C)C(=O)N[C@@H](CCC(=O)O)C(=O)N[C@@H](Cc1c[nH]cn1)C(=O)N[C@@H](CC(C)C)C(=O)N[C@H](C(N)=O)C(C)C` [compound 28] (H-H[Aib]EGTFTSDVSVLK([AEEA-AEEA-γGlu-C20 diacid])EEAAAQRFLEHLV-NH2): the “Turbidity (pH 7)” value in series [1] worked out at 0.09. Also, in series [2], the Selectivity was found to be 55501 and the EC50 was 0.02 nM. Moreover, the Fibril formation in series [3] was 7910. Further, the EC50 in series [4] was 1260 nM.

In the case of `CC(C)C[C@H](NC(=O)[C@H](Cc1ccccc1)NC(=O)[C@H](CCCNC(=N)N)NC(=O)[C@H](CCC(N)=O)NC(=O)[C@H](C)NC(=O)[C@H](C)NC(=O)[C@H](C)NC(=O)[C@H](Cc1ccccc1)NC(=O)[C@H](CCC(=O)O)NC(=O)[C@H](CCCCNC(=O)COCCOCCNC(=O)COCCOCCNC(=O)CC[C@H](NC(=O)CCCCCCCCCCCCCCCCCCC(=O)O)C(=O)O)NC(=O)[C@H](CC(C)C)NC(=O)[C@@H](NC(=O)[C@H](CO)NC(=O)[C@@H](NC(=O)[C@H](CC(=O)O)NC(=O)[C@H](CO)NC(=O)[C@@H](NC(=O)[C@H](Cc1ccccc1)NC(=O)[C@@H](NC(=O)CNC(=O)[C@H](CCC(=O)O)NC(=O)C(C)(C)NC(=O)[C@@H](N)Cc1c[nH]cn1)[C@@H](C)O)[C@@H](C)O)C(C)C)C(C)C)C(=O)N[C@@H](CCC(=O)O)C(=O)N[C@@H](Cc1c[nH]cn1)C(=O)N[C@@H](CC(C)C)C(=O)N[C@H](C(N)=O)C(C)C` [compound 29] (H-H[Aib]EGTFTSDVSVLK([AEEA-AEEA-γGlu-C20 diacid])EFAAAQRFLEHLV-NH2), in series [1], the “Turbidity (pH 7)” value was found to be 0.08. Besides, in series [2], the Selectivity is given as 8541 and the EC50 was 0.1 nM. The same molecule came in with a Fibril formation in series [3] of 28786. In addition, the EC50 in series [4] is 794 nM.

For the molecule `CC(C)C[C@H](NC(=O)[C@H](Cc1ccccc1)NC(=O)[C@H](CCCNC(=N)N)NC(=O)[C@H](CCC(N)=O)NC(=O)[C@@H](NC(=O)[C@H](C)NC(=O)[C@H](C)NC(=O)[C@H](CCC(=O)O)NC(=O)[C@H](CCC(=O)O)NC(=O)[C@H](CCCCNC(=O)COCCOCCNC(=O)COCCOCCNC(=O)CC[C@H](NC(=O)CCCCCCCCCCCCCCCCCCC(=O)O)C(=O)O)NC(=O)[C@H](CC(C)C)NC(=O)[C@H](Cc1ccc(O)cc1)NC(=O)[C@H](CO)NC(=O)[C@@H](NC(=O)[C@H](CC(=O)O)NC(=O)[C@H](CO)NC(=O)[C@@H](NC(=O)[C@H](Cc1ccccc1)NC(=O)[C@@H](NC(=O)CNC(=O)[C@H](CCC(=O)O)NC(=O)C(C)(C)NC(=O)[C@@H](N)Cc1c[nH]cn1)[C@@H](C)O)[C@@H](C)O)C(C)C)[C@@H](C)O)C(=O)N[C@@H](CCC(=O)O)C(=O)N[C@@H](Cc1c[nH]cn1)C(=O)N[C@@H](CC(C)C)C(=O)N[C@H](C(N)=O)C(C)C` [compound 30] (H-H[Aib]EGTFTSDVSYLK([AEEA-AEEA-γGlu-C20 diacid])EEAATQRFLEHLV-NH2), the “Turbidity (pH 7)” value in series [1] stood at 0.08. In addition, in series [2], the Selectivity turned out to be 22387 and the EC50 is 0.0126 nM. Moreover, the Fibril formation in series [3] turned out to be 6899. For the same molecule, the EC50 in series [4] was 251 nM.

`CC(C)C[C@H](NC(=O)[C@H](Cc1ccccc1)NC(=O)[C@H](CCCNC(=N)N)NC(=O)[C@H](CCC(N)=O)NC(=O)[C@H](CCC(=O)O)NC(=O)[C@H](C)NC(=O)[C@H](C)NC(=O)[C@H](Cc1ccccc1)NC(=O)[C@H](CCC(=O)O)NC(=O)[C@H](CCCCNC(=O)COCCOCCNC(=O)COCCOCCNC(=O)CC[C@H](NC(=O)CCCCCCCCCCCCCCCCCCC(=O)O)C(=O)O)NC(=O)[C@H](CC(C)C)NC(=O)[C@H](CCC(=O)O)NC(=O)[C@H](CO)NC(=O)[C@@H](NC(=O)[C@H](CC(=O)O)NC(=O)[C@H](CO)NC(=O)[C@@H](NC(=O)[C@H](Cc1ccccc1)NC(=O)[C@@H](NC(=O)CNC(=O)[C@H](CCC(=O)O)NC(=O)C(C)(C)NC(=O)[C@@H](N)Cc1c[nH]cn1)[C@@H](C)O)[C@@H](C)O)C(C)C)C(=O)N[C@@H](CCC(=O)O)C(=O)N[C@@H](Cc1c[nH]cn1)C(=O)N[C@@H](CC(C)C)C(=O)N[C@H](C(N)=O)C(C)C` [compound 31] (H-H[Aib]EGTFTSDVSELK([AEEA-AEEA-γGlu-C20 diacid])EFAAEQRFLEHLV-NH2): the “Turbidity (pH 7)” value in series [1] was determined as 0.08. Moreover, in series [2], the Selectivity is reported as 144477 and the EC50 is 0.0398 nM. Moreover, the Fibril formation in series [3] amounted to 10417. The EC50 in series [4] was 6310 nM.

Turning to `CC(C)C[C@H](NC(=O)[C@H](Cc1ccccc1)NC(=O)[C@H](CCCNC(=N)N)NC(=O)[C@H](CCC(N)=O)NC(=O)C(C)(C)NC(=O)[C@H](C)NC(=O)[C@H](C)NC(=O)C(C)(C)NC(=O)[C@H](CCC(=O)O)NC(=O)[C@H](CCCCNC(=O)COCCOCCNC(=O)COCCOCCNC(=O)CC[C@H](NC(=O)CCCCCCCCCCCCCCCCCCC(=O)O)C(=O)O)NC(=O)[C@H](CC(C)C)NC(=O)[C@@H](NC(=O)[C@H](CO)NC(=O)[C@@H](NC(=O)[C@H](CC(=O)O)NC(=O)[C@H](CO)NC(=O)[C@@H](NC(=O)[C@H](Cc1ccccc1)NC(=O)[C@@H](NC(=O)CNC(=O)[C@H](CCC(=O)O)NC(=O)C(C)(C)NC(=O)[C@@H](N)Cc1c[nH]cn1)[C@@H](C)O)[C@@H](C)O)C(C)C)[C@@H](C)O)C(=O)N[C@@H](CCC(=O)O)C(=O)N[C@@H](Cc1c[nH]cn1)C(=O)N[C@@H](CC(C)C)C(=O)N[C@H](C(N)=O)C(C)C` [compound 32] (H-H[Aib]EGTFTSDVSTLK([AEEA-AEEA-γGlu-C20 diacid])E[Aib]AA[Aib]QRFLEHLV-NH2), the “Turbidity (pH 7)” value in series [1] turned out to be 0.08. In series [2], the Selectivity was found to be 23147 and the EC50 was 0.0251 nM. The molecule further showed a Fibril formation in series [3] of 16551. Further, the EC50 in series [4] is 631 nM.
